Experimental data: US12122787B2, “Fused pyridone compound, and preparation method therefor and use thereof” (SHANGHAI JEMINCARE PHARMACEUTICALS CO., LTD, priority 2019, dated 2024)
Read-outs that look alike come from different tables or passages of the source.

What was measured:
Type in all cases: cell-based
[1] = test system: phosphorylated ERK (Thr202/Tyr204) in NCI-H358 cells expressing mutant RAS(G12C); assay: Inhibition of RAS-mediated signal transduction: phosphorylated ERK ELISA in NCI-H358 cells; settings: NCI-H358 cells, 2 hours of treatment, pERK normalized by Janus Green B, read-out: p-ERK IC50 (NCI H358)
Experimental: The cells were treated with or without the compound of the present disclosure (dimethyl sulfoxide, DMSO), and the final concentration of DMSO was guaranteed to be 0.5%. After 2 hours of treatment, the medium was removed and 4% paraformaldehyde (Beyotime catalog number E672002-0100) was added and left to stand for 20 minutes. Cells were washed with PBS after fixation and incubated with precooled methanol for 10 min to permeabilize the cell membrane.
The level of phosphorylated ERK was detected using an enzyme linked immunosorbent assay (ELISA) method. […] The plates were washed 5 times with PBS containing 0.05% Tween 20. […] The reaction was stopped by adding 1 mol/L H2SO4, and the OD value was read at 450 nm by EnVision (PerkinElmer).
The total number of cells per well was detected by Janus Green B staining method. After detecting the level of phosphorylated ERK, the 96-well plate was washed with PBS until colorless, and 0.1% Janus Green B (Abcam catalogue number ab111622) was added to incubate for 10 minutes. After the 96-well plate was washed with double distilled water, 0.1 mol/L HCl was added, then the mixture was shaked and incubated for 10 minutes. The OD value was read at 595 nm by EnVision (PerkinElmer).
The signal of pERK (Thr202/Tyr204) was normalized by the signal value of Janus Green B, and the inhibition percentage after drug treatment relative to DMSO reference was calculated. The percentage values were fitted by a four-parameter dose-response curve and generated IC50 values.

[2] = test system: MIA PaCa2 cells expressing KRAS-G12C; assay: Growth inhibition of tumor cell line expressing KRAS-G12C (Cell Titer Glo), MIA PaCa2; settings: MIA-Paca2, 72 hours
Experimental: (§1) The ability of the compounds of the present disclosure to inhibit the growth of cells expressing KRAS-G12C was evaluated by measuring the cell viability and calculating the GI50 values.
(§2) The tumor cell line NCI-H358 (ATCC catalogue number CRL-5807) expressing KRAS-G12C was cultured in RPMI medium supplemented with 10% fetal bovine serum and penicillin/streptomycin, and the tumor cell line MIA PaCa2 (ATCC CRL-1420) expressing KRAS-G12C was cultured in DMEM medium supplemented with 10% fetal bovine serum, 2.5% horse serum, and penicillin/streptomycin.
(§3) Cells NCI-H358 and MIA-Paca2 were inoculated into black transparent bottom 384-well plate (PerkinElmer catalogue number 6007460) with cell density of 1000 and 800 respectively, and the cells were allowed to adhere to the wall overnight (8-12 hours). After the cells adhered to the wall, the experimental group was added with the compound of the present disclosure diluted 5 times the concentration of the working solution (final concentration containing 0.1% dimethyl sulfoxide, i.e. DMSO); the control group was added with the same dilution as the experimental group (final concentration containing 0.1% DMSO). After 72 hours, Cell Titer Glo reagent (Promega catalogue number G7572) was used to detect ATP content according to the instruction method to determine the amount of cell proliferation. The brief operation steps were as follows: the cell plate was taken out and kept at normal temperature for equilibrium for 30 minutes; Cell Titer Glo reagent with the same volume as the culture was added; the culture plate was placed on a shaker for shaking and cracking for 2 minutes; the culture plate was left to stand at room temperature for 10 minutes; then the light signal value was read by microplate reader EnVision (PerkinElmer).
(§4) Data from all experimental groups were used to calculate the respective percent inhibition using the DMSO group, and the GI50 was calculated using the data processing software GraphPad to analyze the inhibition rates produced by the 9 compound dose concentrations diluted at ⅓-fold ratio.

[3] = test system: NCI-H358 cells expressing KRAS-G12C; assay: Growth inhibition of tumor cell line expressing KRAS-G12C (Cell Titer Glo), NCI-H358
Experimental: as §1, §2, §3, §4

| Structure (SMILES) | IC50 [1] [nM] | GI50 [2] [nM] | GI50 ([3]; NCI-H358, 72 hours) [nM] | GI50 ([2]; Homo sapiens, MIA PaCa-2, 72 h) [nM] | GI50 ([3]; Homo sapiens, NCI-H358, 72 h) [nM] | IC50 ([1]; Homo sapiens, NCI-H358, 2 h) [nM] |
| --- | --- | --- | --- | --- | --- | --- |
| C=CC(=O)N1CC2C(=O)Nc3c(c4cc(F)c(-c5c(O)cccc5F)c(F)c4n(-c4c(C)ccnc4C(C)C)c3=O)N2CC1C (single isomer, unassigned) [Compound 22A-2] | 54 | 119 | 42 |  |  |  |
| C=CC(=O)N1C[C@@H]2C(=O)N(CCN(C)C)c3c(c4cc(Cl)c(-c5c(O)cccc5F)c(F)c4n(-c4c(C)ccnc4C(C)C)c3=O)N2C[C@H]1C (atropisomer, axis not shown) [Compound 26B] | 19 | 28 | 22 |  |  |  |
| C=CC(=O)N1CC2C(=O)N(CCN(C)C)c3c(c4cc(F)c(-c5c(O)cccc5F)c(F)c4n(-c4c(C)ccnc4C(C)C)c3=O)N2CC1C (stereo not drawn) [Compound 24C] | 12 | 23 | 11 |  |  |  |
| C=CC(=O)N1C[C@@H]2C(=O)N(C)c3c(c4cc(F)c(-c5c(O)cccc5F)c(F)c4n(-c4c(C)ccnc4C(C)C)c3=O)N2C[C@H]1C [Compound 21A-1] | 104 |  |  | 156 | 91 |  |
| C=CC(=O)N1C[C@@H]2C(=O)N(C)c3c(c4cc(F)c(-c5c(O)cccc5F)c(F)c4n(-c4c(C)ccnc4C(C)C)c3=O)N2C[C@H]1C [Compound 21A-2] | 15 | 34 | 10 |  |  |  |
| C=CC(=O)N1C[C@@H]2C(=O)N(CCN(C)C)c3c(c4cc(Cl)c(-c5c(O)cccc5F)c(F)c4n(-c4c(CC)ccnc4C(C)C)c3=O)N2C[C@H]1C (atropisomer, axis not shown) [Compound 54B-1] | 12 |  |  | 6 | 7 |  |
| C=CC(=O)N1C[C@@H]2C(=O)N(C)c3c(c4cc(Cl)c(-c5c(F)cccc5OC)c(F)c4n(-c4c(C)ncnc4C(C)C)c3=O)N2C[C@H]1C [Compound 50] |  |  |  | 94 | 62 | 41 |
| C=CC(=O)N1C[C@@H]2CN(C)c3c(c4cc(F)c(-c5c(O)cccc5F)nc4n(-c4ccccc4C(C)C)c3=O)N2C[C@H]1C [Compound 10A] |  |  |  | 496 | 184 | 63 |
| C=CC(=O)N1C[C@@H]2C(=O)N(C)c3c(c4cc(F)c(-c5c(C)ccc6[nH]nc(N)c56)c(F)c4n(-c4c(C)ccnc4C(C)C)c3=O)N2C[C@H]1C [Compound 28A] |  |  |  | 9 | 7 | 6 |
| C=CC(=O)N1C[C@@H]2C(=O)N(C)c3c(c4cc(F)c(-c5c(O)cccc5F)c(F)c4n(-c4c(C(C)C)ncnc4C(C)C)c3=O)N2C[C@H]1C [Compound 20A] |  |  |  | 10 | 4 | 4 |
| C=CC(=O)N1C[C@@H]2C(=O)N(CCN(C)C)c3c(c4cc(Cl)c(-c5c(O)cccc5F)c(F)c4n(-c4c(C)ccnc4C(C)C)c3=O)N2C[C@H]1C (atropisomer, axis not shown) [Compound 26D] | 68 | 79 | 82 |  |  |  |
| C=CC(=O)N1C[C@@H]2CN(CCC(C)O)c3c(c4cc(F)c(-c5c(O)cccc5F)c(F)c4n(-c4c(C)ccnc4C(C)C)c3=O)N2C[C@H]1C (stereo partly drawn) [Compound 37A] |  |  |  | 392 | 66 | 70 |
| C=CC(=O)N1CC2C(=O)N(CCN(C)C)c3c(c4cc(F)c(-c5c(O)cccc5F)c(F)c4n(-c4c(C)ccnc4C(C)C)c3=O)N2CC1C (stereo not drawn) [Compound 24D] | 246 | 407 | 232 |  |  |  |
| C=CC(=O)N1C[C@@H]2COc3c(c4cc(Cl)c(-c5c(O)cccc5F)c(F)c4n(-c4c(C)ccnc4C(C)C)c3=O)N2C[C@H]1C [Compound 18B-1] | 36 | 66 | 21 |  |  |  |
| C=CC(=O)N1C[C@@H]2C(=O)N(C)c3c(c4cc(Cl)c(-c5ccc(F)c6nc(N)sc56)nc4n(-c4c(C)ccnc4C(C)C)c3=O)N2C[C@H]1C (single isomer, unassigned) [Compound 56B] | 11 | 25 | 12 |  |  |  |
| C=CC(=O)N1C[C@@H]2C(=O)N(CCCO)c3c(c4cc(F)c(-c5c(O)cccc5F)c(F)c4n(-c4c(C)ccnc4C(C)C)c3=O)N2C[C@H]1C [Compound 41A] |  |  |  | 2240 | 530 | 942 |
| C=CC(=O)N1C[C@@H]2CN(C)c3c(c4cc(F)c(-c5c(O)cccc5F)c(F)c4n(-c4c(C)ccnc4C(C)C)c3=O)N2C[C@H]1C (single isomer, unassigned) [Compound 16A-2] | 84 | 146 | 74 |  |  |  |
| C=CC(=O)N1C[C@@H]2COc3c(c4cc(Cl)c(-c5c(O)cccc5F)c(F)c4n(-c4c(C)ccnc4C(C)C)c3=O)N2C[C@H]1C [Compound 18A] | 5 | 13 | 6 |  |  |  |
| C=CC(=O)N1C[C@@H]2CN(CCO)c3c(c4cc(F)c(-c5c(O)cccc5F)c(F)c4n(-c4c(C)ccnc4C(C)C)c3=O)N2C[C@H]1C [Compound 36A-1] |  |  |  | 235 | 32 | 16 |
| C=CC(=O)N1C[C@@H]2COc3c(c4cc(F)c(-c5c(O)cccc5F)c(F)c4n(-c4c(C)ccnc4C(C)C)c3=O)N2C[C@H]1C (atropisomer, axis not shown) [Compound 3B-1] | 26 | 166 | 27 |  |  |  |
| C=CC(=O)N1C[C@@H]2C(=O)N(C)c3c(c4cc(Cl)c(-c5c(O)cccc5F)c(F)c4n(-c4c(CC)ccnc4C(C)C)c3=O)N2C[C@H]1C [Compound 53A-1] |  |  |  | 4 | 2 | 3 |
| C=CC(=O)N1CC2C(=O)N(CCN(C)C)c3c(c4cc(F)c(-c5c(O)cccc5F)c(F)c4n(-c4c(C)ccnc4C(C)C)c3=O)N2CC1C (stereo not drawn) [Compound 24B] | 75 | 112 | 68 |  |  |  |
| C=CC(=O)N1C[C@@H]2COc3c(c4cc(F)c(-c5c(O)cccc5F)nc4n(-c4c(C)ccnc4C(C)C)c3=O)N2C[C@H]1C (single isomer, unassigned) [Compound 5B] | 128 | 3130 | 210 |  |  |  |
| C=CC(=O)N1C[C@@H]2COc3c(c4cc(F)c(-c5c(O)cccc5F)nc4n(-c4ccccc4C(C)C)c3=O)N2C[C@H]1C [Compound 2A] |  |  |  | 1020 | 143 | 66 |
| C=CC(=O)N1C[C@@H]2C(=O)N(CCN(C)C)c3c(c4cc(Cl)c(-c5c(F)cccc5OC)c(F)c4n(-c4c(C)ccnc4C(C)C)c3=O)N2C[C@H]1C (atropisomer, axis not shown) [Compound 27A] |  |  |  | 152 | 147 | 87 |
